Here are results for 26 compounds from patent US11760752B2, “Carboxylic acid, acyl sulfonamide and acyl sulfamide-derivatized bicyclic aza-heteroaromatics as selective Mcl-1 inhibitors and as dual Mcl-1/Bcl-2 inhibitors” (University of Maryland, Baltimore, priority 2019, dated 2023).

Like-named read-outs stand apart in the source and are kept apart here.

The target in one assay is BCL-2 (Homo sapiens (Human), UniProt P10415). Briefly: Fluorescence polarization competition assay (FPCA), displacement of FITC-Bak from BCL-2. The format is binding. The protocol:
(§1) These values were determined from a fluorescence polarization competition assay involving a fluorescently labeled peptide (BAK) bound to the desired Bcl-2 anti-apoptotic protein. […] These inhibition constants are the concentrations at which the indazole derivatives can displace 50% of BAK from the indicated Bcl-2 anti-apoptotic proteins.
(§2) The concentrated peptide stocks were prepared in DMSO and the concentration of the peptide was determined in water at pH 8.0 using the extinction coefficient for amide-linked FITC of λ494=68,000 cm^−1M^−1.
(§3) The fluorescence polarization assays were performed in 96 well polypropylene F-bottom black microplates (Greiner Bio-One) with a final volume of 100 μL.
(§4) The fluorescence polarization competition assays were setup using a Biomek FXP Automated Liquid Handling System. […] The IC50 values were then converted to Ki values using an equation derived by Nikolovska-Coleska et al. All inhibitors were tested in triplicate.
In general terms: Fluorescence polarisation rises when a labelled molecule tumbles more slowly, as on binding a larger partner.

Assay [1] concerns the target T1, BCL-XL (Homo sapiens (Human), UniProt Q07817). Briefly: Fluorescence polarization competition assay (FPCA), displacement of FITC-Bak from BCL-XL. Format: binding. How it is done:
as §1, §2, §3, §4
Target sequence in this assay (Q07817 1-212): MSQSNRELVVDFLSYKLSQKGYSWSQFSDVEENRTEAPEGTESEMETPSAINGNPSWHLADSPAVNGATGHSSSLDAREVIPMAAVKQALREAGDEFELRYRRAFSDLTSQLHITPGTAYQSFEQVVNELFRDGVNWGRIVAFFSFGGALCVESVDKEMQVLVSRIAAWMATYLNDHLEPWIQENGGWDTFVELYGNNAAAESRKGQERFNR

The target of a further assay is MCL-1 (Homo sapiens (Human), UniProt Q07820). Briefly: Fluorescence polarization competition assay (FPCA), displacement of FITC-Bak from MCL-1. The format is binding.
Assay [2] has as its target T1, BCL-XL. To be noted: relative to BCL-2; cited from earlier work.
Target sequence in this assay (Q07817 whole entry, species assumed): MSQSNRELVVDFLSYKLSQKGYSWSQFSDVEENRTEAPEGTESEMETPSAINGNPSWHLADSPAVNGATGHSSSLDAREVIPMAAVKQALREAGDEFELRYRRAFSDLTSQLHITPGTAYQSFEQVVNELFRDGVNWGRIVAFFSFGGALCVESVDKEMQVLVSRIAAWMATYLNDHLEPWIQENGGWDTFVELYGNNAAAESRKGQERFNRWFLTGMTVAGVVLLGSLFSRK
Where [3] appears, read: Table 3, FITC-Bak peptide displacement, read-out: MCL-1 Affinity Ki.
Where [4] appears, read: Table 3, FITC-Bak peptide displacement, read-out: BCL-2 Affinity Ki.
The mark [5] stands for this setting: Table 3, FITC-Bak peptide displacement, read-out: BCL-XL Affinity Ki.
Where [6] appears, read: Table 5, heterocyclic core SAR, read-out: MCL-1 Ki.
Where [7] appears, read: Table 8, N-1-alkylated isomers, read-out: BCL-2 Ki.

Sequence of MCL-1 (Q07820 172-327): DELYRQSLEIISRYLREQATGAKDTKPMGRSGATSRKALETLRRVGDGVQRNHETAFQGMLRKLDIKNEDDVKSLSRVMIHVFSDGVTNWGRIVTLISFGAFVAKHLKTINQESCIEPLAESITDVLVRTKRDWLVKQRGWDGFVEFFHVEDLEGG
Sequence of BCL-2 (P10415 1-211): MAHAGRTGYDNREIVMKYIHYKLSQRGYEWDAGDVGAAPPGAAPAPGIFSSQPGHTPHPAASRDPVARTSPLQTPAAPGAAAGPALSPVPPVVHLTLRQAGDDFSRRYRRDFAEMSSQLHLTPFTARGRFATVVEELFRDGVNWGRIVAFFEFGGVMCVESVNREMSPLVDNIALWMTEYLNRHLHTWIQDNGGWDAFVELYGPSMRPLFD

For the compound `Cc1cc(OCCCc2c(C(=O)O)n(C)c3cc(Cl)ccc23)cc(C)c1Cl`, the Ki on BCL-2 (Table 4, FPCA data for control compounds, read-out: BCL-2 Ki) was more than 10000 nM; at BCL-XL [1] (Table 4, FPCA data for control compounds, read-out: BCL-XL Ki), 1200 ± 160 nM.
As for `Cc1cc(OCCCn2nc(C(=O)O)c3cc(Cl)ccc32)cc(C)c1Cl` [BD-3-173], the Ki at MCL-1 (setting [3]) is 5800 ± 360 nM; on BCL-2 (read-out: BCL-2 Affinity Ki) it was 5790 ± 620 nM.
For `Cc1cc(OCCCn2nc(C(=O)NS(=O)(=O)c3ccc(NCc4ccco4)c([N+](=O)[O-])c3)c3cc(Cl)ccc32)cc(C)c1Cl` [BD-3-180], the values for the inhibition constant Ki at MCL-1 (setting [3]), at BCL-2 (setting [4]) and on BCL-XL [1] (setting [5]) were 480 ± 30 nM, 572 ± 50 nM and 597 ± 180 nM, respectively.
Take `Cc1cc(OCCCn2nc(C(=O)NS(=O)(=O)c3ccc(NCc4cccnc4)c([N+](=O)[O-])c3)c3cc(Cl)ccc32)cc(C)c1Cl` [BD-3-181]: the Ki on MCL-1 (setting [3]) is 840 ± 50 nM; on BCL-2 (setting [4]), 694 ± 90 nM; on BCL-XL [1] (setting [5]), 574 ± 110 nM.
On the same counts, the results for `Cc1cc(OCCCn2nc(C(=O)NS(=O)(=O)c3ccc(N4CCOCC4)c([N+](=O)[O-])c3)c3cc(Cl)ccc32)cc(C)c1Cl` [BD-3-183] are 920 ± 30 nM, 868 ± 130 nM and 1060 ± 340 nM.
`Cc1cc(OCCCn2nc(C(=O)NS(=O)(=O)c3ccc(NCC4CCCO4)c([N+](=O)[O-])c3)c3cc(Cl)ccc32)cc(C)c1Cl` (stereo not drawn) [BD-3-184]: the Ki on MCL-1 (setting [3]) was 690 ± 30 nM; at BCL-2 (setting [4]), 1170 ± 160 nM; on BCL-XL [1] (setting [5]) it was 840 ± 140 nM.
Take `Cc1cc(OCCCn2nc(C(=O)NS(=O)(=O)c3ccc(NCC4CCN(C)CC4)c([N+](=O)[O-])c3)c3cc(Cl)ccc32)cc(C)c1Cl` [BD-3-190]: the Ki on BCL-2 (read-out: BCL-2 Affinity Ki) stood at 8930 ± 290 nM.
As for `Cc1cc(Oc2ccc(Cn3nc(C(=O)NS(=O)(=O)c4ccc([N+](=O)[O-])c(N5CCOCC5)c4)c4cc(Cl)ccc43)cc2)cc(C)c1Cl` [CG-1-016], the results for the Ki at MCL-1 (setting [3]), on BCL-2 (setting [4]) and on BCL-XL [1] (setting [5]) were 370 ± 20 nM, 451 ± 40 nM and 436 ± 70 nM, respectively.
On the same counts, the results for `Cc1cc(Oc2ccc(Cn3nc(C(=O)NS(=O)(=O)c4ccc([N+](=O)[O-])c(NCc5cccnc5)c4)c4cc(Cl)ccc43)cc2)cc(C)c1Cl` [CG-1-018] are 480 ± 30 nM, 384 ± 30 nM and 436 ± 70 nM.
`Cc1cc(Oc2ccc(Cn3nc(C(=O)NS(=O)(=O)c4ccc([N+](=O)[O-])c(NCc5ccco5)c4)c4cc(Cl)ccc43)cc2)cc(C)c1Cl` [CG-1-019]: the values for the Ki at MCL-1 (setting [3]), at BCL-2 (setting [4]) and at BCL-XL [1] (setting [5]) were 1140 ± 50 nM, 384 ± 30 nM and 325 ± 50 nM, respectively.
Turning to `CCN1CCN(c2cc(S(=O)(=O)NC(=O)c3nn(Cc4ccc(Oc5cc(C)c(Cl)c(C)c5)cc4)c4ccc(Cl)cc34)ccc2[N+](=O)[O-])CC1` [CG-1-023], the results for the Ki at MCL-1 (setting [3]) and on BCL-2 (read-out: BCL-2 Affinity Ki) were 12400 ± 370 nM and 74300 ± 11500 nM, respectively.
As to `Cc1cc(Oc2ccc(Cn3nc(C(=O)O)c4cc(Cl)ccc43)cc2)cc(C)c1Cl` [NB-1-070], the Ki on MCL-1 (setting [3]) worked out at 910 ± 50 nM; at BCL-2 (read-out: BCL-2 Affinity Ki), 1040 ± 190 nM; at BCL-XL [1] (read-out: BCL-XL Affinity Ki), 2010 ± 350 nM.
Regarding `Cc1cc(Oc2ccc(Cn3nc(C(=O)NS(=O)(=O)c4ccc(Cl)cc4)c4cc(Cl)ccc43)cc2)cc(C)c1Cl` [NB-1-084], the Ki on MCL-1 (setting [3]) was 280 ± 10 nM; on BCL-2 (setting [4]), 1090 ± 450 nM; at BCL-XL [1] (setting [5]), 840 ± 228 nM.
As to `Cc1cc(Oc2ccc(Cn3nc(C(=O)NS(=O)(=O)c4ccc(N5CCOCC5)c([N+](=O)[O-])c4)c4cc(Cl)ccc43)cc2)cc(C)c1Cl` [NB-1-086], the figures for the Ki on MCL-1 (setting [3]), on BCL-2 (read-out: BCL-2 Affinity Ki) and on BCL-XL [1] (read-out: BCL-XL Affinity Ki) were 320 ± 10 nM, 569 ± 40 nM and 840 ± 228 nM, respectively.
In the case of `Cc1cc(Oc2ccc(Cn3nc(C(=O)NS(=O)(=O)c4ccc(NCc5cccnc5)c([N+](=O)[O-])c4)c4cc(Cl)ccc43)cc2)cc(C)c1Cl` [NB-1-087], the Ki amounted to 520 ± 30 nM at MCL-1 (setting [3]), 611 ± 200 nM at BCL-2 (read-out: BCL-2 Affinity Ki) and 557 ± 80 nM on BCL-XL [1] (read-out: BCL-XL Affinity Ki).
Regarding `Cc1cc(Oc2ccc(Cn3nc(C(=O)NS(=O)(=O)c4ccc(NCCN5CCOCC5)c([N+](=O)[O-])c4)c4cc(Cl)ccc43)cc2)cc(C)c1Cl` [NB-1-088], the Ki worked out at 750 ± 60 nM on MCL-1 (setting [3]) and 738 ± 190 nM at BCL-2 (read-out: BCL-2 Affinity Ki).
In the case of `Cc1cc(Oc2ccc(Cn3nc(C(=O)NS(=O)(=O)c4ccc(NCc5ccco5)c([N+](=O)[O-])c4)c4cc(Cl)ccc43)cc2)cc(C)c1Cl` [NB-1-089], the Ki on MCL-1 (setting [3]) was determined as 260 ± 10 nM; on BCL-2 (setting [4]), 266 ± 20 nM; on BCL-XL [1] (setting [5]), 551 ± 70 nM.
`Cc1cc(OCCCn2c(C(=O)O)nc3ccccc32)cc(C)c1Cl` [compound 5, 1-(3-(4-chloro-3,5-dimethylphenoxy)propyl)-1H-benzo[d]imidazole-2-carboxylic acid]: the Ki on MCL-1 (setting [6]) and at MCL-1 (read-out: MCL-1 Ki) was more than 10000 nM throughout.
In the case of `Cc1cc(OCCCn2nc3ccc(Cl)cc3c2C(=O)O)cc(C)c1Cl` [compound 10, 5-chloro-2-(3-(4-chloro-3,5-dimethylphenoxy)propyl)-2H-indazole-3-carboxylic acid], the Ki on MCL-1 (setting [6]) and at MCL-1 (read-out: MCL-1 Ki) was more than 10000 nM each time.
Take `Cc1cc(OCCn2nc3ccc(Cl)cc3c2C(=O)O)cc(C)c1Cl` [compound 11, 5-chloro-2-(2-(4-chloro-3,5-dimethylphenoxy)ethyl)-2H-indazole-3-carboxylic acid]: the Ki at MCL-1 (setting [6]) and at MCL-1 (read-out: MCL-1 Ki) was more than 10000 nM each time.
`Cc1cc(Oc2ccc(Cn3nc4ccc(Cl)cc4c3C(=O)O)cc2)cc(C)c1Cl` [compound 12, 5-chloro-2-(4-(4-chloro-3,5-dimethylphenoxy)benzyl)-2H-indazole-3-carboxylic acid]: the Ki on MCL-1 (setting [6]) came to 2360 ± 290 nM; at MCL-1 (read-out: MCL-1 Ki), 2360 ± 290 nM; on BCL-2 (read-out: BCL-2 Ki) it was 1450 ± 75 nM.
As for `Cc1cc(Oc2ccc(Cn3nc4cc(Cl)ccc4c3C(=O)O)cc2)cc(C)c1Cl` [compound 49, 6-chloro-2-(4-(4-chloro-3,5-dimethylphenoxy)benzyl)-2H-indazole-3-carboxylic acid], the inhibition constant (Ki) at MCL-1 (setting [6]) and on MCL-1 (read-out: MCL-1 Ki) was 1760 ± 550 nM in each case.
With `Cc1cc(Oc2ccc(Cn3nc(C(=O)O)c4cc(Cl)ccc43)cc2)cc(C)c1Cl` [compound 50, 5-chloro-1-(4-(4-chloro-3,5-dimethylphenoxy)benzyl)-1H-indazole-3-carboxylic acid], the inhibition constant Ki on MCL-1 (Table 8, N-1-alkylated isomers, read-out: MCL-1 Ki) worked out at 1580 ± 360 nM.
Regarding `Cc1cc(Oc2ccc(Cn3nc(C(=O)NS(=O)(=O)c4ccc(N5CCOCC5)c([N+](=O)[O-])c4)c4cc(Cl)ccc43)cc2)cc(C)c1Cl` [compound 51, 5-chloro-1-(4-(4-chloro-3,5-dimethylphenoxy)benzyl)-N-((4-morpholino-3-nitrophenyl)sulfonyl)-1H-indazole-3-carboxamide], the Ki at MCL-1 turned out to be 2220 ± 200 nM; at BCL-2 (setting [7]) it was 620 ± 120 nM. Moreover, the “BCL-2 binding affinity (in words)” value at BCL-2 is recorded as “within the nanomolar range”. Moreover, at BCL-XL [1], the “BCL-XL affinity (in words)” value was “no affinity”.
For the compound `Cc1cc(Oc2ccc(Cn3nc(C(=O)NS(=O)(=O)c4ccc(NCc5cccnc5)c([N+](=O)[O-])c4)c4cc(Cl)ccc43)cc2)cc(C)c1Cl` [compound 52, 5-chloro-1-(4-(4-chloro-3,5-dimethylphenoxy)benzyl)-N-((3-nitro-4-((pyridin-3-ylmethyl)amino)phenyl)sulfonyl)-1H-indazole-3-carboxamide], the inhibition constant Ki on MCL-1 is more than 10000 nM; at BCL-2 (setting [7]), 690 ± 110 nM. For the same compound, the “BCL-2 binding affinity (in words)” value at BCL-2 is on record as “within the nanomolar range”. Also, the “BCL-XL affinity (in words)” value on BCL-XL [1] is given as “no affinity”.
With `CC1(C)CCC(CN2CCN(c3ccc(C(=O)NS(=O)(=O)c4ccc(NCC5CCOCC5)c([N+](=O)[O-])c4)c(Oc4cnc5[nH]ccc5c4)c3)CC2)=C(c2ccc(Cl)cc2)C1` [venetoclax, Venetoclax], on BCL-XL [2], the “BCL-XL affinity, fold lower than BCL-2” value is on record as “more than 100 fold”.

By Ki is commonly meant a measure of affinity in units of concentration, obtained from inhibition or displacement.
